The values below come from patent US12240844B2 (Voronoi, Inc., priority 2019, dated 2025).

For orientation: IC50 means the midpoint of a concentration-inhibition curve. Higher therefore signals weaker potency. In general, inhibition refers to the relative decrease from the control value, in per cent. One may read the GI50 as the concentration giving 50% growth inhibition. A lower GI50 goes with greater sensitivity of the cells.

The target in one assay is T1, TTK (Homo sapiens, UniProt P33981).
T1 sequence (P33981 1-857): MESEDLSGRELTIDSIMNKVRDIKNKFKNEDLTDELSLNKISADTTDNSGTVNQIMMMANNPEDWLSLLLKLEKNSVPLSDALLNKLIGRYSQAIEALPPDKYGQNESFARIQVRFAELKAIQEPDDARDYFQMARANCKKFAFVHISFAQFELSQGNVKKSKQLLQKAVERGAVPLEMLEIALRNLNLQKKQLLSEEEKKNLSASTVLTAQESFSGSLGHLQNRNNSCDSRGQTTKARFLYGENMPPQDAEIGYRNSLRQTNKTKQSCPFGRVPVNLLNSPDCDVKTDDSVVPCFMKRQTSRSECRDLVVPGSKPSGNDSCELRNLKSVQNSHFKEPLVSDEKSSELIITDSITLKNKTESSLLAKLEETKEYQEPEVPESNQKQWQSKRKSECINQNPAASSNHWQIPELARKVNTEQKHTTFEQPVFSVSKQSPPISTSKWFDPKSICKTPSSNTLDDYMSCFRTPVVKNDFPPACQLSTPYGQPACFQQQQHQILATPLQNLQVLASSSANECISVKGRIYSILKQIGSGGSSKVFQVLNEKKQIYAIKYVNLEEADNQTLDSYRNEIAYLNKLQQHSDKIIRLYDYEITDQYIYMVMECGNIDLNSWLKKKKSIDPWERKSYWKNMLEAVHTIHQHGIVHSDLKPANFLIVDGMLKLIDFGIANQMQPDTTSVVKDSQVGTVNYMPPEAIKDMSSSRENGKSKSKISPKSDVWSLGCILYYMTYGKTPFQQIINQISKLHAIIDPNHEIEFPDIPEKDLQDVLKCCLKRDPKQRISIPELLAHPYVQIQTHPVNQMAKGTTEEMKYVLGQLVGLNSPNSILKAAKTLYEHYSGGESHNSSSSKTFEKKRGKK
Briefly: TTK enzyme inhibition, ADP-Glo kinase assay. Format: biochemical. The arrangement: purchased Signalchem T20-10G. The conditions noted are these: ATP 5 μM. How it is done: In order to evaluate the inhibitory activity of the compounds according to the present invention on LRRK2, LRRK2 (G2019S), DYRK1, CLK1 and TTK kinases, the following experiment was performed.
Example compounds were reacted with the purified human TTK (Signalchem #T20-10G) enzyme to evaluate the enzyme inhibitory ability as follows. The reaction buffer was used as the composition of 40 mM Tris-HCl pH7.4, 20 mM MgCl2, 0.1 mg/ml BSA (5× kinase buffer, Signalchem #K03-09) and 50 μM DTT (Signalchem #D86-09B), and the reaction of all test materials was performed on the reaction buffer. The compound was diluted with 10 mM DMSO stock in […] by a serial dilution method, and the enzyme activity was measured at the final compound concentrations of 1, 0.333333, 0.111111, 0.037037, 0.012346, 0.004115, 0.001372, 0.000457, 0.000152, 0.000051 and 0.000017 μM. In the test, the human TTK (7.5 ng) enzyme was reacted with the purified ATP (5 μM, Promega #V6930) and an MBP enzyme substrate (0.2 μg, Signalchem M42-51N) at 25° C. for 4 hours, and then the enzyme activity was identified using the in vitro ADP-Glo™ kinase assay (Promega #V6930). The enzyme activity reaction liquid, an ADP-Glo reaction liquid and an enzyme potency detection solution were reacted in a ratio of 2:2:1, and the degree of inhibition of enzyme activity was measured by luminescence. The degree of inhibition of enzyme activity according to the treatment concentrations of the respective compounds was calculated based on the luminescence degree of the enzyme activity of a solvent control group that was not treated with the compound, where the concentration of each compound to inhibit enzyme activity inhibition by 50% was determined as an IC50 (nM) value and obtained using Prism (Version 8.2, GraphPad) software.
(§1) In the table below, the following designations were used for the evaluation of enzyme inhibitory ability.

Another assay has as its system human DYRK1A and Tau. The assay is described as follows: Tau phosphorylation inhibition, ClariCELL Kinase Cell-Based Assay (Carnabio). The method in brief: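 HEK293 cells transiently expressing human DYRK1A and Tau were exposed to compound, then lysed. Released Tau was captured on plate and its phosphorylation quantified by ELISA with a phospho-Tau-specific antibody.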

Another assay deals with SHP-77. The assay is described as follows: SHP-77 cancer cell proliferation inhibition (Cell Titer-Glo). The assay is classed as cell-based. As to conditions: Homo sapiens, SHP77, SHP-77 small cell lung cancer cell line, 72 hours. The method in brief: (§2)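 GI50 comes from CellTiter-Glo luminescence, read 10 min after reagent addition at RT, following 72 h compound treatment. Eleven concentrations were used (⅓ steps, highest 10 μM final) on 2000 cells/well. MDA-MB-231 and MDA-MB-468 were grown in DMEM, SHP-77 in RPMI.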
A general note: Cellular ATP, detected with luciferase, serves as a proxy for viable cell number.

In assay [1] the target is T2, LRRK2, LRRK2 (G2019S), DYRK1, CLK1 and TTK kinases (Homo sapiens, UniProt Q5S007, G2019S).
T2 construct: other: LRRK2 (G2019S); Kinase HotSpot service (Reaction Biology), ATP 10 uM
T2 sequence (Q5S007 whole entry G2019S): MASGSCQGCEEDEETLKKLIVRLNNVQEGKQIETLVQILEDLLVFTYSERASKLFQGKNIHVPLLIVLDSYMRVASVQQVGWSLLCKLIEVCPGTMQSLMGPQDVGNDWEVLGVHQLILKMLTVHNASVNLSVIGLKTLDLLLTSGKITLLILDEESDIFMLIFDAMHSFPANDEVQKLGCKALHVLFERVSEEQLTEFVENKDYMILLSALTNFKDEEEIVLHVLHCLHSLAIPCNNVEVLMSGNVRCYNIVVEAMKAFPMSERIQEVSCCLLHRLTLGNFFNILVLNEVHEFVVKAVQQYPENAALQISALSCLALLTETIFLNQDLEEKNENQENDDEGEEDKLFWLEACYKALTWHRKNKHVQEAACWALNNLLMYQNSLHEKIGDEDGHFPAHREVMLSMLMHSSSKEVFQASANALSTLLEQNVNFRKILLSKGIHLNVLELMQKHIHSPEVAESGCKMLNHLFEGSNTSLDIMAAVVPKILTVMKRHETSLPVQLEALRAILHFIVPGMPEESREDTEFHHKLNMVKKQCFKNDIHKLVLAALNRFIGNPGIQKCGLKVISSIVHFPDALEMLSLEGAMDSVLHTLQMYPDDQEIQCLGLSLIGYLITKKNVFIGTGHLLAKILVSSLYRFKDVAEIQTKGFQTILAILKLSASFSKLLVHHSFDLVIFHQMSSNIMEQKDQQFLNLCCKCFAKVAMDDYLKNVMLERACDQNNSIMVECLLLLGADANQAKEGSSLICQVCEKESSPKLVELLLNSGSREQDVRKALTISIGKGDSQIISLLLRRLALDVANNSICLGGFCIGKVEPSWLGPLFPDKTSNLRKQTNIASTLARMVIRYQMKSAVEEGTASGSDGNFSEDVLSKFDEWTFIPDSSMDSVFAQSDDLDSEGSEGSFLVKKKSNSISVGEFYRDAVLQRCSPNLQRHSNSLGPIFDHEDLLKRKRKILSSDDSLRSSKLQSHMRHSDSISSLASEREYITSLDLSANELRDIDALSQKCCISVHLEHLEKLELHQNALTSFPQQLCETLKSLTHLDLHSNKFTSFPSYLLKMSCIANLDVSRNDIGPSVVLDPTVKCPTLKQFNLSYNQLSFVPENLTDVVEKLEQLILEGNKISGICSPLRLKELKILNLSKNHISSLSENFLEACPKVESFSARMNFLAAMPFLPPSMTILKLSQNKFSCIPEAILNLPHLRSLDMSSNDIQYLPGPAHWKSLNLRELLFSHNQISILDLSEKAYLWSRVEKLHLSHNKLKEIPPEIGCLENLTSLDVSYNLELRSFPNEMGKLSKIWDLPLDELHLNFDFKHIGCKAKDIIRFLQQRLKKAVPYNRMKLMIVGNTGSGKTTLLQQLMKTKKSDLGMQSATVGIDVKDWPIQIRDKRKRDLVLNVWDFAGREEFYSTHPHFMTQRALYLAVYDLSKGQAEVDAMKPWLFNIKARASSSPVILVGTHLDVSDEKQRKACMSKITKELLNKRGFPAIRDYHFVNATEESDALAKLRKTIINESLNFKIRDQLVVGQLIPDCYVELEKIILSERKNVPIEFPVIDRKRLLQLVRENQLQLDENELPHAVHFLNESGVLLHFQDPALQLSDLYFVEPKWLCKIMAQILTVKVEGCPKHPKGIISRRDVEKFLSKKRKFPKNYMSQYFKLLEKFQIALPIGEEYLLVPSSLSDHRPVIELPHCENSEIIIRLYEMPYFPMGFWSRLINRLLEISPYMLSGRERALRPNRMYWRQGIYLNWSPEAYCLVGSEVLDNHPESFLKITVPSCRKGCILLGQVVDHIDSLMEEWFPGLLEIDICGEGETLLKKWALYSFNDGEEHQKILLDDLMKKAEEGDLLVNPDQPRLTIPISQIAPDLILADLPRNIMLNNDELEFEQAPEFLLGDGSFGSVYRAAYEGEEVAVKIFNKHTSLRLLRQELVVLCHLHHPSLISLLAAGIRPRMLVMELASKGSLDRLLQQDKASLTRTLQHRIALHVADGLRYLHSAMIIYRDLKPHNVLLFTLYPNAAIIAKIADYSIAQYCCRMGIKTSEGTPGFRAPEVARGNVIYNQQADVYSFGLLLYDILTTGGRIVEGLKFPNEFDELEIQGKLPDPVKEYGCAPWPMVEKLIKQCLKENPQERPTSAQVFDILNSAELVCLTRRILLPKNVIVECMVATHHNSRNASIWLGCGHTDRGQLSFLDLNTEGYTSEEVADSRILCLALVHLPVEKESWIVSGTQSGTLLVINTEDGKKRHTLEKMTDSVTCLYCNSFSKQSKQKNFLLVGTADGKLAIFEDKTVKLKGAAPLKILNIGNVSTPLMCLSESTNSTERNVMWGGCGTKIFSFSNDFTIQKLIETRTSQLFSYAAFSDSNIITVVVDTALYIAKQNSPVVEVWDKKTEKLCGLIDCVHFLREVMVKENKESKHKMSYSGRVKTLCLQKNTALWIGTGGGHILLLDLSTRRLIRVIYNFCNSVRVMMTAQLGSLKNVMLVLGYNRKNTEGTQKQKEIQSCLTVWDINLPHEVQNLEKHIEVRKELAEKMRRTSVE
Briefly: Enzyme IC50 by Kinase HotSpot service (Reaction Biology Corporation), values marked with *. Format: biochemical. The conditions noted are these: LRRK2 (G2019S), ATP 10 uM. How it is done: (§3) Meanwhile, the enzyme IC50 measurement for some compounds was performed using Kinase HotSpot service (Reaction Biology Corporation); during the test, the ATP concentration was 10 uM, where all were conducted under the same condition; and the concentration of the compound was measured by giving a 3-fold concentration gradient with the highest concentration of […], where the values measured using Kinase HotSpot service (Reaction Biology Corporation) were marked with “*”.
(§4) All experimental methods were performed as provided in Kinase HotSpot Customer Protocol (http://www.reactionbiology.com//Kinase_Assay_Protocol).
as §1

The target of assay [2] is T3, LRRK2, LRRK2 (G2019S), DYRK1, CLK1 and TTK kinases (Homo sapiens, UniProt Q5S007).
T3 construct: LRRK2 IC50 (marked with *); other: LRRK2; Kinase HotSpot service (Reaction Biology), ATP 10 uM
T3 sequence (Q5S007 whole entry G2019S): as above
Described as above. The assay is classed as biochemical. The conditions noted are these: LRRK2, ATP 10 uM. Here is the method: as §3, §4, §1

Assay [3] concerns the target T4, LRRK2, LRRK2 (G2019S), DYRK1, CLK1 and TTK kinases (Homo sapiens, UniProt Q13627).
T4 construct: other: DYRK1; Kinase HotSpot service (Reaction Biology), ATP 10 uM
Described as above. Format: biochemical. As to conditions: DYRK1, ATP 10 uM. Here is the method:
as §3, §4, §1

The target in assay [4] is T5, LRRK2, LRRK2 (G2019S), DYRK1, CLK1 and TTK kinases (Homo sapiens, UniProt P49759).
T5 construct: CLK1 IC50 (marked with *); other: CLK1; Kinase HotSpot service (Reaction Biology), ATP 10 uM
T5 sequence (P49759 whole entry, stated change not applied): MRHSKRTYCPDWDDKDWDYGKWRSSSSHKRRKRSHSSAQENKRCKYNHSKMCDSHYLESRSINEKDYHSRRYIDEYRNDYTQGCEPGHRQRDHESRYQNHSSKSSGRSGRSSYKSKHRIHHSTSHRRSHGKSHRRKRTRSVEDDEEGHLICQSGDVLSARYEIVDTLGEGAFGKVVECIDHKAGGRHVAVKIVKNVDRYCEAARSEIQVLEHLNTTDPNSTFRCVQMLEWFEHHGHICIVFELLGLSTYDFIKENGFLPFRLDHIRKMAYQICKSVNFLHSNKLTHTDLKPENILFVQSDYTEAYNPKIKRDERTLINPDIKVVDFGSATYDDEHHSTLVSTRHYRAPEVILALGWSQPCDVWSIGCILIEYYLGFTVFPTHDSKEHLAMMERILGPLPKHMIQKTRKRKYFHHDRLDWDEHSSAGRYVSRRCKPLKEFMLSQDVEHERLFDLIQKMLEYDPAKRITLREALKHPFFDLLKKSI
The description is as above. The assay is classed as biochemical. As to conditions: CLK1, ATP 10 uM. Here is the method:
as §3, §4, §1

A further assay deals with MDA-MB-231 cell line. The assay is described as follows: MDA-MB-231 cancer cell proliferation inhibition (Cell Titer-Glo). The assay is classed as cell-based. The conditions noted are these: Homo sapiens, MDA-MB-231 triple-negative breast cancer cell line, 72 hours. The method in brief: as §2

Turning to `COc1cc(S(=O)(=O)N2CCC(N3CCOCC3)CC2)ccc1Nc1cc(C2CC2)c2c(C(F)(F)F)c[nH]c2n1` [Example 223, 4-cyclopropyl-N-(2-methoxy-4-((4-morpholinopiperidin-1-yl)sulfonyl)phenyl)-3-(trifluoromethyl)-1H-pyrrolo[2,3-b]pyridin-6-amine], the IC50 (against TTK; in assay [1]; in assay [2]; in assay [3]; in assay [4]) was less than 100 nM in each case. The molecule also registered an inhibition at 0.25 µM in the assay on human DYRK1A and Tau (0.25 uM) of 4.6%. Moreover, the inhibition at 0.5 µM in the assay with human DYRK1A and Tau (0.5 uM) turned out to be 12.9%. This molecule had an inhibition at 1 µM in the assay on human DYRK1A and Tau (1 uM) of 29%. In addition, the GI50 in the assay on SHP-77 and in the assay on MDA-MB-231 cell line was 301 to 1000 nM each time.
